System: neonatal limb culture
Assay: X-ray imaging of neonatal mouse hind limb organ culture (effect of bisphosphonates on bone density)
Assay type: cell-based, Swiss albino mouse
Details: 1 mM pamidronate in culture medium (well A) vs control (well B); neonatal limb in culture for 40 hours; FIG. 3
From the text: The method of the invention may be used to monitor the dynamic growth of an articulated skeletal […] by capturing a series of images overtime. In this example, an articulated lower portion (hind limb) of a limb of a neonatal, day-old Swiss albino mouse was removed and cultured in a well plate. The limb was scraped with a scalpel to abrade any skin and flesh sufficiently to allow an organ culture medium to reach the skeletal members. The scraped limb was superficially embedded in 1% agarose. The medium used for culture was 4 ml of minimum essential medium (Delbecco's Modified Eagle Medium), supplemented with 1 mM β glycerophosphate, ascorbic acid, 0.2% bovine serum albumin and antibiotics. The antibiotics contained 100 units/ml penicillin, and 100 μg/ml streptomycin. The skeletal members of the limbs continued to grow within the cultures and were imaged with X-rays (Time-Lapse-3 hrs; 11 to […] using a multi-modal system as previously described). Bone growth and mineral deposition could be measured, as could X-ray and column densities. Because the limb was articulated, the growth of individual skeletal members was influenced by neighboring members, just as in the case of growth in a living animal. The analytical X-ray imaging methodology according to the invention allows measurement of the growth of skeletal members of a neonatal mouse limb grown in vitro in organ culture. […]

SMILES: NCCC(O)(P(=O)(O)O)P(=O)(O)O [pamidronate, Pamidronate]
- bone density and size versus control (X-ray images): differences in bone density and size are observable
